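How tested: cells in 96-well plates exposed to compound for 48 hours at five concentrations. At the GI50, growth is halved.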 Activity calls are given as the source filed them. Cut-off read from the data, not from the text of the source: active = GI50 up to about 1.1 µM and inactive = higher.
What was measured:
Test in all cases: DTP human tumour cell line panel, 48 h
COLO 205 = tested on: COLO 205
SF-295 = tested on: SF-295
SK-MEL-28 = tested on: SK-MEL-28
M14 = tested on: M14
MDA-MB-231 = tested on: MDA-MB-231
IGROV-1 = tested on: IGROV-1
Malme-3M = tested on: Malme-3M
OVCAR-3 = tested on: OVCAR-3
MDA-N = tested on: MDA-N
RPMI-8226 = tested on: RPMI-8226
OVCAR-8 = tested on: OVCAR-8
MCF7 = tested on: MCF7
PC-3 = tested on: PC-3
SF-268 = tested on: SF-268
A498 = tested on: A498
SK-MEL-2 = tested on: SK-MEL-2
HCC 2998 = tested on: HCC 2998
HOP-92 = tested on: HOP-92
SR = tested on: SR

Measured: GI50

CC(NC(=O)C(N)CC(=O)O)NC(=O)N1CCOCC1 (stereo unspecified)
inactive: COLO 205 > 100 µM | SF-295 > 100 µM | SK-MEL-28 > 100 µM | M14 > 100 µM | MDA-MB-231 > 100 µM | IGROV-1 > 100 µM | Malme-3M > 100 µM | OVCAR-3 > 100 µM | MDA-N > 100 µM | RPMI-8226 > 100 µM | OVCAR-8 > 100 µM | MCF7 > 100 µM | PC-3 > 100 µM | SF-268 > 100 µM | A498 > 100 µM | SK-MEL-2 > 100 µM

O=[N+]([O-])c1ccc(N/N=C2/CC3=C2CCCCCCCCCC3)c([N+](=O)[O-])c1
inactive: COLO 205 > 100 µM | SF-295 > 100 µM | SK-MEL-28 > 100 µM | M14 > 100 µM | MDA-MB-231 32.7 µM | IGROV-1 > 100 µM | Malme-3M > 100 µM | OVCAR-3 > 100 µM | MDA-N > 100 µM | RPMI-8226 > 100 µM | HCC 2998 > 100 µM | OVCAR-8 > 100 µM | MCF7 > 100 µM | PC-3 > 100 µM | SF-268 > 100 µM | A498 88.9 µM | SK-MEL-2 > 100 µM

NC(=O)NC(=O)C1CCCCC1C(=O)O (stereo unspecified)
inactive: COLO 205 > 100 µM | HOP-92 > 100 µM | SF-295 > 100 µM | SK-MEL-28 > 100 µM | M14 > 100 µM | MDA-MB-231 > 100 µM | IGROV-1 > 100 µM | Malme-3M > 100 µM | OVCAR-3 > 100 µM | MDA-N > 100 µM | RPMI-8226 > 100 µM | OVCAR-8 > 100 µM | MCF7 > 100 µM | PC-3 > 100 µM | SF-268 > 100 µM | A498 > 100 µM | SK-MEL-2 > 100 µM

Cc1ccc(-c2cc(-c3ccc(Cl)cc3)nc(/N=C3\C(=O)N(CN4CCOCC4)c4ccccc43)n2)cc1
inactive: COLO 205 26 µM | HOP-92 22.5 µM | SF-295 40.9 µM | SK-MEL-28 49.1 µM | M14 26.2 µM | MDA-MB-231 33.3 µM | IGROV-1 15.2 µM | Malme-3M 22.9 µM | OVCAR-3 33.9 µM | MDA-N 18.5 µM | HCC 2998 18.6 µM | OVCAR-8 19.5 µM | MCF7 19 µM | PC-3 26.5 µM | SF-268 30.4 µM | A498 18.8 µM | SK-MEL-2 18.3 µM

C/C(=N\n1c(Cc2ccccc2)n[nH]c1=O)c1ccccc1
inactive: COLO 205 > 100 µM | HOP-92 26.8 µM | SK-MEL-28 > 100 µM | M14 > 100 µM | MDA-MB-231 > 100 µM | IGROV-1 > 100 µM | Malme-3M > 100 µM | MDA-N > 100 µM | RPMI-8226 > 100 µM | OVCAR-8 > 100 µM | MCF7 > 100 µM | PC-3 > 100 µM | SF-268 > 100 µM | A498 > 100 µM | SK-MEL-2 > 100 µM

CC1(C)CC(=O)C(=CNc2nc(-c3ccccc3)cs2)C(=O)C1
inactive: COLO 205 33 µM | HOP-92 71 µM | SF-295 57.9 µM | SK-MEL-28 26.7 µM | M14 41.1 µM | MDA-MB-231 34.8 µM | IGROV-1 26.6 µM | OVCAR-3 40.7 µM | MDA-N 30.1 µM | HCC 2998 31.2 µM | OVCAR-8 48.6 µM | MCF7 29.2 µM | PC-3 38.6 µM | SK-MEL-2 34.7 µM

Clc1ccc(/C=N/C23CC4CC(CC(C4)C2)C3)c(Cl)c1
inactive: COLO 205 > 10 µM | HOP-92 > 10 µM | SF-295 > 10 µM | SK-MEL-28 > 10 µM | M14 > 10 µM | SR 3.5 µM | MDA-MB-231 > 10 µM | IGROV-1 > 10 µM | Malme-3M > 10 µM | OVCAR-3 > 10 µM | MDA-N > 10 µM | RPMI-8226 > 10 µM | HCC 2998 > 10 µM | OVCAR-8 > 10 µM | PC-3 > 10 µM | SF-268 > 10 µM | A498 > 10 µM | SK-MEL-2 > 10 µM

CC(C)(CO)N1C(=O)c2ccccc2C1(O)c1ccc(Cl)cc1 (stereo unspecified)
inactive: COLO 205 > 100 µM | SF-295 > 100 µM | SK-MEL-28 > 100 µM | M14 > 100 µM | MDA-MB-231 > 100 µM | IGROV-1 > 100 µM | Malme-3M > 100 µM | OVCAR-3 88.7 µM | MDA-N > 100 µM | RPMI-8226 > 100 µM | HCC 2998 > 100 µM | OVCAR-8 > 100 µM | MCF7 > 100 µM | PC-3 44.3 µM | SF-268 > 100 µM | SK-MEL-2 37.8 µM

O=C1O/C(=C/c2ccccc2)C(c2ccccc2)=C1O
inactive: COLO 205 > 100 µM | HOP-92 61.5 µM | SF-295 36.3 µM | SK-MEL-28 35.5 µM | M14 59.8 µM | MDA-MB-231 38.1 µM | IGROV-1 40.6 µM | Malme-3M 60.7 µM | OVCAR-3 19.8 µM | MDA-N 34 µM | RPMI-8226 28 µM | HCC 2998 41.3 µM | OVCAR-8 60.1 µM | MCF7 34.4 µM | PC-3 29.2 µM | A498 23.1 µM | SK-MEL-2 17.5 µM

COc1ccc(N(c2ccc(C#N)cc2)c2ccc(C#N)cc2)cc1
inactive: COLO 205 31.9 µM | HOP-92 > 100 µM | SF-295 > 100 µM | SK-MEL-28 > 100 µM | M14 > 100 µM | MDA-MB-231 > 100 µM | IGROV-1 23.7 µM | OVCAR-3 82.4 µM | MDA-N > 100 µM | OVCAR-8 > 100 µM | MCF7 26 µM | PC-3 > 100 µM | SF-268 > 100 µM | A498 65.3 µM | SK-MEL-2 > 100 µM

CC(=O)C(C(C)=O)[C@H]1OC(C)(C)O[C@H]1[C@H]1COC(C)(C)O1
inactive: COLO 205 17.7 µM | HOP-92 80 µM | SF-295 29.2 µM | SK-MEL-28 97.3 µM | M14 44.3 µM | MDA-MB-231 28.6 µM | IGROV-1 53.5 µM | Malme-3M > 100 µM | OVCAR-3 28.6 µM | MDA-N 55.3 µM | HCC 2998 26.5 µM | OVCAR-8 34.7 µM | MCF7 35.6 µM | PC-3 24.5 µM | SF-268 63.8 µM | A498 > 100 µM | SK-MEL-2 22.6 µM

Cc1ccc(OCC2CO2)c(Br)c1 (stereo unspecified)
inactive: COLO 205 17.7 µM | HOP-92 14.7 µM | SF-295 21 µM | SK-MEL-28 27.5 µM | M14 34.1 µM | MDA-MB-231 21.9 µM | IGROV-1 15.5 µM | Malme-3M 56.5 µM | OVCAR-3 25.1 µM | MDA-N 19.5 µM | RPMI-8226 25.1 µM | HCC 2998 16 µM | OVCAR-8 7.8 µM | MCF7 14.7 µM | PC-3 47.3 µM | SF-268 13.1 µM | A498 34.4 µM
